Type in all cases: functional
The test system of test [1] is Mycobacterium tuberculosis. The experiment in a line: Antimycobacterial activity against Mycobacterium tuberculosis H37Rv assessed as growth inhibition by Alamar Blue staining-based broth microdilution assay. Further details: inhibition (INH): concentration or dose not given beside the values. Conditions: for MIC: Mycobacterium tuberculosis, H37Rv. On the technique in general: The colour change of resazurin is a common sign of viable cells or microbes.

The test system of test [2] is Mycobacterium tuberculosis. The experiment in a line: Antimycobacterial activity against Mycobacterium tuberculosis H37Rv assessed as growth inhibition at 128 ug/ml by Alamar Blue staining-based broth microdilution assay.
The subject of test [3] is Mycobacterium tuberculosis. Briefly: Antimycobacterial activity against Mycobacterium tuberculosis H37Rv assessed as growth inhibition at 128 ug/ml by low-oxygen recovery assay.
Test [4] deals with Mycolicibacterium smegmatis. The experiment in a line: Antimicrobial activity against Mycobacterium smegmatis.
Test [5] deals with Mycolicibacterium fortuitum. The experiment in a line: Antimycobacterial activity against Mycobacterium fortuitum.
Test [6] relates to Mycobacterium tuberculosis. The experiment in a line: Ratio of 8-OCH3 IC50 to compound IC50 Mycobacterium tuberculosis H37Rv assessed as growth inhibition.
Test [7] concerns Mycobacterium tuberculosis. Briefly: Ratio of CPFX IC50 to compound IC50 Mycobacterium tuberculosis H37Rv assessed as growth inhibition.
For test [8], the system named is Mycobacterium tuberculosis. Briefly: Ratio of MXFX IC50 to compound IC50 Mycobacterium tuberculosis H37Rv assessed as growth inhibition.
Test [9] deals with Mycobacterium tuberculosis. The experiment in a line: Ratio of RIF IC50 to compound IC50 Mycobacterium tuberculosis H37Rv assessed as growth inhibition.
Test [10] relates to Mycobacterium tuberculosis. The experiment in a line: Ratio of GTFX IC50 to compound IC50 Mycobacterium tuberculosis H37Rv assessed as growth inhibition.
Test [11] concerns Mycobacterium tuberculosis. The experiment in a line: Antimycobacterial activity against Mycobacterium tuberculosis H37Rv assessed as growth inhibition at 6.25 ug/ml by Alamar Blue staining-based broth microdilution assay.
Another test concerns Mycolicibacterium phlei. Briefly: Antimycobacterial activity against Mycobacterium phlei.

The source of these data is ChEMBL document CHEMBL3588753, “Recent progress in the drug development of coumarin derivatives as potent antituberculosis agents” (2015).

As usually defined, the MIC is the lowest concentration found to suppress growth. As a reminder, the inhibition is the percentage by which the read-out fell short of the control.

Converted amounts (≈) assume the structure as drawn.

In the case of `COc1cc(/C=C/c2c(C#N)c(=O)oc3ccc(Cl)cc23)cc(OC)c1OC`, the “inhibition (INH)” value in test [1] amounted to 87%.

Consider `N#Cc1c(/C=C/c2c3ccccc3cc3ccccc23)c2cc(Cl)ccc2oc1=O`, for which the “inhibition (INH)” value in test [1] was 81%.

As to `CN(C)c1ccc(/C=C/c2c(C#N)c(=O)oc3ccc(Cl)cc23)cc1`, in [1], the “inhibition (INH)” value was 79%.

On to `O=C(c1ccncc1)n1nc(-c2ccc(F)cc2)cc1-c1cc2ccccc2oc1=O`, for which, in [1], the “inhibition (INH)” value was found to be 80.09% and the MIC stood at 0.625 µg/mL (≈ 1.52 µM).

With `COc1ccc(-c2cc(-c3ccc(Nc4cc(=O)oc5ccccc45)cc3)nc(N)c2C#N)cc1OC`, in test [1], the “inhibition (INH)” value is given as 99% and the MIC is 12.5 µg/mL (≈ 25.5 µM).

In the case of `O=C(CSc1nnc(-c2cc3ccccc3oc2=O)o1)Nc1nc2ccc(Br)cc2s1`, in test [1], the “inhibition (INH)” value is given as 99% and the minimum inhibitory concentration (MIC) was 12.5 µg/mL (≈ 24.3 µM).

Turning to `O=C(CSc1nnc(-c2cc3ccccc3oc2=O)o1)Nc1ccc(I)cc1`, in test [1], the “inhibition (INH)” value stood at 99% and the minimal inhibitory concentration (MIC) came out at 12.5 µg/mL (≈ 24.7 µM).

As to `Cc1ccc(O)c(C(=O)c2ccc(-c3cc4cc(Br)ccc4oc3=O)nc2)c1`, the MIC in [1] is 100 µg/mL (≈ 229 µM).

Turning to `Cc1ccc(O)c(C(=O)c2ccc(-c3cc4ccccc4oc3=O)nc2)c1`, the MIC in test [1] worked out at 100 µg/mL (≈ 280 µM).

For `COc1cccc2cc(-c3ccc(C(=O)c4cc(C)ccc4O)cn3)c(=O)oc12`, the MIC in [1] came to 62.5 µg/mL (≈ 161 µM).

As to `COc1ccc(C2NC(=O)Nc3c2c(=O)oc2ccc(C)cc32)cc1` (centres undefined), the inhibition at 128 µg/mL in test [2] came to 58%; in test [3], 62%.

With `COc1ccc(C2NC(=O)Nc3c2c(=O)oc2ccc(C)cc32)cc1OC` (centres undefined), the inhibition at 128 µg/mL was determined as 55% in test [2] and 35% in test [3].

Consider `O=C1Nc2c(c(=O)oc3ccccc23)C(c2ccccc2O)N1` (centres undefined), for which the inhibition at 128 µg/mL in test [2] came to 45%; in [3], 37%.

`CC(C)=CCC/C(C)=C/CC/C(C)=C/Cc1c(O)c2ccccc2oc1=O`: the MIC in test [4] came to 0.5 µg/mL (≈ 1.36 µM); in [5] it was 2 µg/mL (≈ 5.46 µM).

For the compound `Cc1cc(=O)oc2cc(OCc3cn(Cc4cc(=O)oc5ccc6ccccc6c45)nn3)ccc12`, the minimal inhibitory concentration (MIC) in test [1] worked out at 6.25 µg/mL (≈ 13.4 µM).

Regarding `Cc1cc(=O)oc2cc(OCc3cn(Cc4cc(=O)oc5cc(Cl)ccc45)nn3)ccc12`, the minimal inhibitory concentration (MIC) in test [1] was 6.25 µg/mL (≈ 13.9 µM).

For `O=C(N/N=C/c1cccc(O)c1)c1cc2ccccc2oc1=O`, in test [1], the minimum inhibitory concentration (MIC) was determined as 50 µg/mL (≈ 162 µM).

Take `Cc1cc(=O)oc2cc(OCc3cn(Cc4cc(=O)oc5ccc(Cl)cc45)nn3)ccc12`: the MIC in test [1] was determined as 6.25 µg/mL (≈ 13.9 µM).

In test [4], `COc1c2c(cc3oc(=O)c(-c4ccc(O)cc4)c(O)c13)OC(C)(C)C=C2` displayed an MIC of 18 µg/mL (≈ 49.1 µM).

For the compound `O=C(CN1CCN(c2cc3c(cc2F)c(=O)c(C(=O)O)cn3C2CC2)CC1)c1cc2ccc(O)cc2oc1=O`, the values for the MIC in test [1] and in test [4] were 0.5 µg/mL (≈ 0.937 µM) and 3.12 µg/mL (≈ 5.85 µM), respectively.

Take `COc1ccc2cc(C(=O)CN3CCN(c4c(F)cc5c(=O)c(C(=O)O)cn(C6CC6)c5c4OC)CC3)c(=O)oc2c1`: the MIC turned out to be 0.25 µg/mL (≈ 0.433 µM) in [1] and 6.25 µg/mL (≈ 10.8 µM) in test [4]. Also, the “Ratio IC50” value in test [6], in test [7], in test [8], in [9] and in test [10] was 2 each time.

On to `O=C(N/N=C/c1ccc([N+](=O)[O-])cc1)c1cc2ccccc2oc1=O`, for which the MIC in test [1] came to 100 µg/mL (≈ 296 µM).

Consider `Cc1cc2oc(=O)cc(Nc3ccc4ccccc4c3)c2cc1Cl`, for which the inhibition at 6.25 µg/mL in test [11] was 100%.

On to `O=c1cc(Nc2ccc3ccccc3c2)c2ccccc2o1`, for which the inhibition at 6.25 µg/mL in test [11] was determined as 81%.

In the case of `O=c1oc2ccccc2c(O)c1C1=Nc2ccccc2SC(c2ccccc2O)C1` (centres undefined), in [11], the inhibition at 6.25 µg/mL amounted to 94%.

In the case of `O=c1oc2ccccc2c(O)c1C1=Nc2ccccc2SC(c2ccc([N+](=O)[O-])cc2)C1` (centres undefined), in test [11], the inhibition at 6.25 µg/mL turned out to be 93%.

For `O=c1oc2ccccc2c(O)c1C1=Nc2ccccc2SC(c2c[nH]c3ccccc23)C1` (centres undefined), the inhibition at 6.25 µg/mL in [11] amounted to 80%.

Consider `N#Cc1c(/C=C/c2cccc(-c3ccccc3)c2)c2cc(Cl)ccc2oc1=O`, for which, in test [1], the “inhibition (INH)” value turned out to be 72%.

For the compound `COc1ccc2ccc(=O)oc2c1C(CO)=C(C)C`, the MIC in test [1] worked out at 50 µg/mL (≈ 192 µM).

With `COc1cc2oc(=O)ccc2cc1[C@H]1OC(=O)[C@]2(C)O[C@H]12`, the minimal inhibitory concentration (MIC) in test [1] was 50 µg/mL (≈ 173 µM).

Turning to `C=CC(C)(C)c1c2c(c(O)c3ccc(=O)oc13)C(=O)CC(C)(C)O2`, the minimum inhibitory concentration (MIC) in test [1] is 200 µg/mL (≈ 609 µM).

As for `Cc1ccc(C)c2c(CC(=O)N/N=C/c3ccccc3)cc(=O)oc12`, in test [1], the “inhibition (INH)” value is listed as 70%.

With `O=C(Cc1cc(=O)oc2cc(O)ccc12)N/N=C/c1cccc([N+](=O)[O-])c1`, the “inhibition (INH)” value in test [1] stood at 93%.

Regarding `Cc1ccc(C)c2c(CC(=O)N/N=C/c3ccccc3[N+](=O)[O-])cc(=O)oc12`, the “inhibition (INH)” value in test [1] is recorded as 65%.

On to `C/C(=C\CC/C(C)=C/Cc1c(O)c2ccccc2oc1=O)CC/C=C(\C)COC(=O)c1ccccc1`, for which the minimal inhibitory concentration (MIC) (in test [4]; against Mycolicibacterium phlei) was 2 µg/mL (≈ 4.11 µM) each time.

For `C/C(=C\CC/C(C)=C/CC/C(C)=C/Cc1c(O)c2ccccc2oc1=O)CO`, the MIC (in test [4]; against Mycolicibacterium phlei) was 16 µg/mL (≈ 41.8 µM) throughout.

In the case of `CC(=O)OC/C(C)=C/CC/C(C)=C/CC/C(C)=C/Cc1c(O)c2ccccc2oc1=O`, the minimum inhibitory concentration (MIC) (in test [4]; with Mycolicibacterium phlei) was 8 µg/mL (≈ 18.8 µM) in each case.

For the compound `C=CC(C)(C)c1c(O)c2c(c3ccc(=O)oc13)OC(C)(C)C=C2`, the MIC in test [1] is 100 µg/mL (≈ 320 µM).

As for `O=c1ccc2c(O)c3ccoc3cc2o1` [BERGAPTOL], in test [1], the minimal inhibitory concentration (MIC) came out at 100 µg/mL (≈ 495 µM).

Regarding `C=CC(C)(C)c1c2c(c(OC)c3ccc(=O)oc13)C=CC(C)(C)O2` [DENTATIN], the MIC in [1] came out at 50 µg/mL (≈ 153 µM).

`COc1cc2ccc(=O)oc2cc1O` [SCOPOLETIN]: in [1], the MIC is 42.1 µg/mL (≈ 219 µM).
